Measured values reported in patent EP0559700B1, “NOVEL PILOCARPINE DERIVATIVES AND PROCESS FOR THEIR PREPARATION” (Santen Oy, priority 1990, dated 1992).

Key:
[1] = Corneal permeability in a diffusion chamber; type: in vitro ADME, rabbit; settings: rabbit eye cornea, diffusion chamber, epithelium side to endothelium side; read-out: Permeability coefficient Papp
Excerpt: The corneal permeability of pilocarpine hydrochloride and its most promising prodrug derivatives as evaluated from the tests described above were studied in a diffusion chamber, wherein the migration of the compound from the delivering phase (epithelium side) thorugh the cornea to the acceptor side (endothelium side) of the diffusion chamber. In the study, rabbit eye cornea was used. From the samples taken from the acceptor side of the diffusion chamber, both the concentration of the prodrug and the liberated drug were determined in the acceptor phase with HPLC. Thus the rate of degradation of the prodrug in the cornea was determined. The permeability coefficients (Papp, cm/s) calculated from the permeability rate (μmol/min), their […] deviations (RSD) and the number of tests, are given in the Table II below.

[2] = Enzyme hydrolysis in plasma/buffer pH 7.4 mixture (80%-20%); type: in vitro ADME; settings: for half-life: 80% plasma/buffer
Description: The half-times of enzyme hydrolysis of the novel bispilocarpates according to the invention and of known pilocarpic acid diesters were determined in a plasma/buffer pH 7.4-mixture (80%-20%) at 37°C. The degradation constants (k) for the compounds tested and determined from the plot showing the logarithm of remaining diester as a function of time and the half-lives T½ are shown in the Table II below. From the results it may be seen that in […] the stable test compound degrades under the influence of an enzyme (esterase) to a O,O'-dihydrogen bispilocarpate intermediate, which spontaneously degrades at pH 7.40 to pilocarpine. Consequently the effect of the bispilocarpate intermediate on the rate of formation of pilocarpine is very significant. The formation of pilocarpine was almost complete irrespective of the epimerization possibility of the intermediate. The amount of isopilocarpine formed varied from 0 to 10%, as also the pilocarpine formed epimerized, if the duration of hydrolysis was very long.

[3] = pKa-value determination by titration in a water-ethanol mixture (50%-50%); type: physicochemical; settings: water-ethanol 50:50; titration in water-ethanol mixture (50%-50%)
[4] = Lipophilicity: partition coefficient (octanol-buffer) and capacity factor by RP-HPLC; type: physicochemical; settings: for chromatographic logP / Capacity factor (22°C) k': rp-hplc; for chromatographic logP: reverse phase HPLC, 22°C, read-out: Capacity factor (22°C) k' (converted)
Excerpt: The lipophilicity of the compounds were studied by determining the partition coefficients (P) of the compounds at a pH of 7.40. The measurements were made either in an octanol-buffer mixture by determining the concentration of the compound to be studied in the buffer phase by HPLC. The partition coefficients of the very lipophilic compounds were, however, determined by reverse phase (RP) liquid chromatography (HPLC) from the retention time (Beckmann 116 pump and 166 UV detector; Marathon autom. sample feeder). […] From the results it can be seen that the compounds of the invention are considerably more lipophilic than the pilocarpine.

[5] = Stability of the compounds: buffer hydrolysis (half-times, shelf-life); type: physicochemical
Description: The stability of the test compounds were tested with buffer hydrolyses. The ionic strength (µ) of the buffers was 0.5, the pH-values used 4.2, 6.0, 7.4 and 9.0 and the temperatures used 37°C, 50 °C, 60 °C and 70 °C.
The half-times T½ calculated on basis of the degradation constant k obtained for each studied compound (T½=0.693/k; k = 2.303 x kk, wherein kk is the angular coefficient of the plot which illustrates the logarithm of the remaining ester as a function of time) in a buffer solution of said pH, are indicated in the Table I below, which values refer to half-times at 37°C.
The storage stability of the derivatives under different storage conditions may be estimated by determining the degradation constants at different temperatures and calculating the degradation constant k at the desired temperature from the equation of the plot corresponding to the Arrhenius equation (1), wherein log k is given as a function of [1/T]. Log k = Log A -(Ea)/(2.303R)x(1)/(T) [formula]
From the degradation constant (k) obtained at the desired temperature the shelf-life-time t10% (t10% = 0.104/k) which indicates the time during which 10% of the drug has degraded may be calculated. By way of example it may be mentioned that the t10%-time of O,O'-dipropionyl (1,4-xylylene) bispilocarpate at 4 °C is almost 500 days.

[6] = plasma/buffer pH 7.4 (80%-20%), 37°C, read-out: half-times (T½) in plasma (80%), 37°C
[7] = plasma/buffer pH 7.4 (80%-20%), 37°C
[8] = buffer pH 6.00, ionic strength 0.5, 37°C, read-out: Half-times in buffers at 37°C, T½, pH 6.00 (converted)
[9] = buffer pH 9.00, ionic strength 0.5, 37°C, read-out: Half-times in buffers at 37°C, T½, pH 9.00 (converted)
[10] = pH 4.2, buffer pH 4.20, ionic strength 0.5, 37°C, read-out: Half-times in buffers at 37°C, T½, pH 4.20 (converted)
[11] = pH 7.4, buffer pH 7.40, ionic strength 0.5, 37°C, read-out: Half-times in buffers at 37°C, T½, pH 7.40 (converted)
[12] = determined from the equation log k'= 0.182 Log P - 0.4086 (RP-HPLC retention)

Compound	Papp [1] [×10⁻⁶ cm/s]	half-life [2, 6] [h]	Degradation coefficient (k) in plasma (80%), 37°C [2, 7] [min⁻¹]	pKa [3]	chromatographic logP [4]	half-life [5, 8] [h]	half-life [5, 9] [h]	half-life [5, 10] [h]	half-life [5, 11] [h]	Partition coefficient log P [4, 12]	Partition coefficient log P ([4]; pH 7.4)	Capacity factor (22°C) k' [4]	half-life ([5]; buffer, pH 4.2) [h]	half-life ([5]; buffer, pH 6) [h]	half-life ([5]; buffer, pH 7.4) [h]	half-life ([5]; buffer, pH 9) [h]	half-life ([2]; pH 7.4) [h]	Degradation coefficient (k) in plasma (80%), 37°C ([2]; pH 7.4) [min⁻¹]
CC[C@H](C(=O)OCc1ccccc1)[C@H](COC(=O)c1cccc(Cl)c1)Cc1cncn1C [3-chloro-benzoyl, benzyl, reference compound]	7.2	0.367	0.03132															
CC[C@H](C(=O)OCc1ccc(COC(=O)[C@@H](CC)[C@H](CO)Cc2cncn2C)cc1)[C@H](CO)Cc1cncn1C [Example 1, O,O'-Dihydrogen (1,4-xylylene) bispilocarpate]				6.25	-0.0915	2.28	0.0317	37.6	0.3									
CC[C@H](C(=O)OCc1cccc(COC(=O)[C@@H](CC)[C@H](CO)Cc2cncn2C)c1)[C@H](CO)Cc1cncn1C [Example 2, O,O'-Dihydrogen (1,3-xylylene) bispilocarpate]				6.3	-0.0814	2.78	0.0183	48.8	0.317									
CC[C@H](C(=O)OCc1ccccc1COC(=O)[C@@H](CC)[C@H](CO)Cc1cncn1C)[C@H](CO)Cc1cncn1C [Example 3, O,O'-Dihydrogen (1,2-xylylene) bispilocarpate]				6.3	-0.0814	3.35	0.0233	20.2	0.417									
CC[C@H](C(=O)OCCCCCCCOC(=O)[C@@H](CC)[C@H](CO)Cc1cncn1C)[C@H](CO)Cc1cncn1C [Example 4, O,O'-Dihydrogen (1,7-heptylene) bispilocarpate]				6.3	0.0518	29.9	0.3	81.8	3.35									
CC[C@H](C(=O)OCCCCCCOC(=O)[C@@H](CC)[C@H](CO)Cc1cncn1C)[C@H](CO)Cc1cncn1C [Example 5, O,O'-Dihydrogen (1,6-hexylene) bispilocarpate]				6.3	-0.0494	25.1	0.233	62.6	2.5									
CC[C@H](C(=O)OCCCCCOC(=O)[C@@H](CC)[C@H](CO)Cc1cncn1C)[C@H](CO)Cc1cncn1C [Example 6, O,O'-Dihydrogen (1,5-pentylene) bispilocarpate]				6.3	-0.123	24.6	0.233	73	2.08									
CC[C@H](C(=O)OCCCCOC(=O)[C@@H](CC)[C@H](CO)Cc1cncn1C)[C@H](CO)Cc1cncn1C [Example 7, O,O'-Dihydrogen (1,4-butylene) bispilocarpate]				6.35	-0.182	18.9	0.167	120	2.63									
CC[C@H](C(=O)OCCCOC(=O)[C@@H](CC)[C@H](CO)Cc1cncn1C)[C@H](CO)Cc1cncn1C [Example 8, O,O' -Dihydrogen (1,3-propylene) bispilocarpate]				6.4	-0.212	10.3	0.0667	67.3	1.2									
CC[C@H](C(=O)OCc1ccc(COC(=O)[C@@H](CC)[C@H](COC(=O)c2ccccc2)Cc2cncn2C)cc1)[C@H](COC(=O)c1ccccc1)Cc1cncn1C [Example 14, O,O'-Dibenzoyl (1,4-xylylene) bispilocarpate]		1.57	0.00737	5.8	0.773		8			6.4929^2								
CC[C@H](C(=O)OCc1ccccc1)[C@H](COC(=O)CCCCC(=O)OC[C@H](Cc1cncn1C)[C@H](CC)C(=O)OCc1ccccc1)Cc1cncn1C [Example 15, O,O'-Adipoyl (dibenzyl) bispilocarpate]				6	0.651						5.8242^2	4.4810	3140	1650	655	70	0.467	0.02487
CC[C@H](C(=O)OCc1ccccc1)[C@H](COC(=O)CCCC(=O)OC[C@H](Cc1cncn1C)[C@H](CC)C(=O)OCc1ccccc1)Cc1cncn1C [Example 16, O,O'-Glutaryl (dibenzyl) bispilocarpate]				6	0.576	2200	43	4190	757	5.4093^2							0.233	0.05044
CC[C@H](C(=O)OCc1ccccc1)[C@H](COC(=O)CCC(=O)OC[C@H](Cc1cncn1C)[C@H](CC)C(=O)OCc1ccccc1)Cc1cncn1C [Example 17, O,O'-Succinyl (dibenzyl) bispilocarpate]				6	0.539						5.2038^2	3.4557	4760	2550	251	28	3.13	0.00368
CC[C@H](C(=O)OCc1ccccc1)[C@H](COC(=O)/C=C/C(=O)OC[C@H](Cc1cncn1C)[C@H](CC)C(=O)OCc1ccccc1)Cc1cncn1C [Example 18, O,O'-Fumaroyl (dibenzyl) bispilocarpate]				6.05	0.631						5.7137^2	4.2785	834	49	6	0.4	2.78	0.00415
CC[C@H](C(=O)OCc1ccccc1)[C@H](COC(=O)c1ccc(C(=O)OC[C@H](Cc2cncn2C)[C@H](CC)C(=O)OCc2ccccc2)cc1)Cc1cncn1C [Example 19, O,O'-Terephtaloyl (dibenzyl) bispilocarpate]				6	0.865	913	38	1580	55	7.0000^2							3.58	0.00322
CCCCCCCC(=O)OC[C@H](Cc1cncn1C)[C@H](CC)C(=O)OCc1ccccc1 [octanoyl, benzyl, reference compound]		0.45	0.02556															
CC[C@H](C(=O)OCc1ccccc1)[C@H](CO)Cc1cncn1C [pilocarpic acid benzyl ester]				6.5	-0.116													
